Laboratory results as given in BindingDB's records for doi:10.1016/j.ejmech.2018.08.085 (China Pharmaceutical University, 2018).

test: Binding affinity to VDR in scrambled siRNA-transfected human MCF7 cells assessed as cell growth inhibition by measuring reduction in BrdU incorporation after 16 hrs by ELISA

| IC50 [nM] | Compound |
| --- | --- |
| 970 | CCN(CC)CCNC(=O)c1ccc(C(CC)(CC)c2ccc(OCSC)c(C)c2)n1CC |
| 650 | CCN(CC)CCNC(=O)c1cc(C(CC)(CC)c2ccc(OCS(=O)(=O)c3ccccc3)c(C)c2)cn1CC |
| 4300 | CCn1c(C(=O)N[C@@H](C)CO)ccc1C(CC)(CC)c1ccc(OCC(O)C(C)(C)C)c(C)c1 (stereo partly drawn) |
